Assay results as given in patent publication US8778937B2, “Benzimidazole boronic acid derivatives as PI3 kinase inhibitors” (GlaxoSmithKline LLC, priority 2011, dated 2014).

Columns and labels:
[1] = test system: MDA-MB-468; test: Cell growth inhibition in PTEN-deficient cell line MDA-MB-468, anchorage independent, Alamar Blue; type: cell-based; conditions: Homo sapiens, 144 h, MDA-MB-468, anchorage independent (soft agar), 6 days incubation, read-out: Prolif EC50 (nM) MDA-MB-468
Description: Cellular Assays—Cell Growth Inhibition in PTEN-Deficient Cell Line MDA-MB-468
PTEN deficient tumor cell lines (MDA-MB-468) were cultured generally according to instructions supplied by cell culture supplier American Type Culture Collection, Manassas, Va., with 10% fetal bovine serum at 5% CO2 and 37° C. Cells were seeded into either a T-75 or a T-175 flask 3-4 days prior to 96-well assay plating such that the flasks were approximately 70-80% confluent of the time of harvest. Cells were harvested using 0.25% trypsin-EDTA (Invitrogen #25200056). Trypan Blue exclusion staining was used to determine cell number.
Viable cells were plated in clear, flat bottom 96-well plates (BD #353075) under anchorage independent conditions at 2,000-10,000 cells per well depending on the cell line. To generate anchorage independent growth conditions, a 5% agar stock solution in water was made and autoclaved to melt and sterilize. From the 5% agar solution, a 0.6% agar/media+10% fetal bovine serum (FBS) solution was made to generate a bottom agar layer in the plates to prevent cell attachment. Seventy five microliters per well of the 0.6% agar-media solution was added to the plates. After solidification, a cell solution of 266,870 to 1,334,022 cells (depending on the cell line) in 10 ml of 0.3% agar/media+10% FBS was made and 75 μl of the cell/media/agar suspension was added to the plates. After the cell layer solidified, 50 μl of media+10% FBS was added to the top of the cells. A 0.3% Brij 35 (Sigma B4184) solution in media+10% FBS was added to column 12 as a background subtraction control. The cells were incubated overnight at 5% CO2 and 37° C. The next day one plate of cells was processed at the time of compound addition to quantify the starting number of cells (T=0 or T0).
To generate the compound titration plates, 15 μl of a 2 mM or 20 μl of a 20 mM solution of the compound of example 31 was diluted in clear bottom polypropylene 96-well plate (BD #351190) using a 10 point, 3-fold titration or a 20 point 2-fold titration, respectively. Three hundred microliters of media was added to the compound dilutions. Ten microliters per well of the serial dilutions was added to the cells and the plates incubated for 6 days at 5% CO2 and 37° C. The final concentration of DMSO in all wells was 0.15% and the highest final concentration of the compound of example 31 was 3.7 μM or 30.7 μM.
Following the 6-day incubation, 20 μl of Alamar Blue (Invitrogen #DAL1100) was added to the cells, incubated at 5% CO2 and 37° C. for 6 hours and the plates read on a Spectramax (Gemini EM) at 530 nm (excitation) and 590 nm (emission) with the auto cut-off disabled. For analysis of cell growth inhibition dose response curves, the data was plotted as the percent of the DMSO-treated control samples (DMSO samples set to 100%). The cellular response was determined for compounds and control compounds by fitting the concentration response with a 4 parameter curve fit using XLfit software and determining the concentration that inhibits 50% of the Ymax-Ymin window (EC50). The EC50 is the midpoint of active compound effect window (between Ymax plateau and Ymin plateau of compound) and represents the concentration of the compound of example 31 where 50% of its maximal effect is observed. Values from wells containing 0.3% Brij 35 (under anchorage independent conditions) were subtracted from all samples for background correction.
The compounds listed in Table 3 were tested generally according to the assays described herein. Table 3 lists the EC50 values for either an experimental run or an average of two or more experimental runs with the examples shown.

[2] = test system: phosphorylation of AKT in MDA-MB-468 tumor cells; test: Inhibition of phosphorylation of AKT (Ser473, MSD) in PTEN deficient tumor cell line MDA-MB-468; type: cell-based; conditions: Homo sapiens, 0.5 h; MDA-MB-468 cells, 30 minutes compound treatment, Ser473-pAKT normalized to total AKT
Description: Cellular Assays—Inhibition of Phosphorylation of AKT in PTEN Deficient Tumor Cell Line MDA-MB-468
Compounds were evaluated for their ability to inhibit downstream phosphorylation of AKT in MDA-MB-468 tumor cells. Breast cancer cells were plated, incubated for approximately 16-20 hours and then treated with compound for 30 minutes. Final DMSO concentration on all cells was 0.15%. The cells were washed with Tris buffer and lysed in MesoScale Discovery (MSD) lysis buffer containing protease and phosphatase inhibitors (included in MSD kit). MSD Ser473-AKT duplex plates (Cat # MS6000) were used according to the manufacturer's instructions and plates were read on a SECTOR™ Imager 6000 using MSD Workbench software. For analysis of the Ser473-pAKT concentration response curves, the data was normalized using the corresponding total AKT value (sum of pAKT and AKT signal) and plotted as the percent of the DMSO-treated control values. The data was fit in Graphpad Prism version 4 for Windows (Graphpad Software, San Diego, Calif.).
The compounds listed in Table 2 were tested generally according to the assays described herein. Table 2 lists the IC50 values for either an experimental run or an average of two or more experimental runs with the examples shown.

Row | Compound | EC50 [1] [nM] | IC50 [2] [nM]
1 | Cc1c(Cn2c(C)nc3c(B(O)O)cc(N4CCOCC4)cc32)cccc1C(F)(F)F [Example 4, (2-methyl-1-(2-methyl-3-(trifluoromethyl)benzyl)-6-morpholino-1H-benzo[d]imidazol-4-yl)boronic acid] | 11.1 | 18.7
2 | Cc1c(Cl)cccc1Cn1c(C)nc2c(B(O)O)cc(N3CCOCC3)cc21 [Example 5, (1-(3-chloro-2-methylbenzyl)-2-methyl-6-morpholino-1H-benzo[d]imidazol-4-yl)boronic acid] | 6.7 | 8.97
3 | Cc1nc2c(B(O)O)cc(N3CCOCC3)cc2n1Cc1cccc2ccccc12 [Example 6, (2-methyl-6-morpholino-1-(naphthalen-1-ylmethyl)-1H-benzo[d]imidazol-4-yl)boronic acid] | 22.3 | 78.2
4 | Cc1cccc(Cn2c(C)nc3c(B(O)O)cc(N4CCOCC4)cc32)c1C [Example 7, (1-(2,3-dimethylbenzyl)-2-methyl-6-morpholino-1H-benzo[d]imidazol-4-yl)boronic acid] | 18.3 | 45.6
5 | Cc1nc2c(B(O)O)cc(N3CCOCC3)cc2n1Cc1cccc(Cl)c1Cl [Example 8, (1-(2,3-dichlorobenzyl)-2-methyl-6-morpholino-1H-benzo[d]imidazol-4-yl)boronic acid] | 42 | 61
6 | Cc1nc2c(B(O)O)cc(N3CCOCC3)cc2n1Cc1cccc2ccsc12 [Example 9] | 88.2 | 65.8
7 | Cc1cccc(Cn2c(C)nc3c(B(O)O)cc(N4CCOCC4)cc32)c1 [Example 10, (2-methyl-1-(3-methylbenzyl)-6-morpholino-1H-benzo[d]imidazol-4-yl)boronic acid] | 1880 | 672
8 | Cc1ccccc1Cn1c(C)nc2c(B(O)O)cc(N3CCOCC3)cc21 [Example 11, (2-methyl-1-(2-methylbenzyl)-6-morpholino-1H-benzo[d]imidazol-4-yl)boronic acid] | 1140 | 227
9 | Cc1nc2c(B(O)O)cc(N3CCOCC3)cc2n1Cc1ccccc1Cl [Example 12, (1-(2-chlorobenzyl)-2-methyl-6-morpholino-1H-benzo[d]imidazol-4-yl)boronic acid] | 3580 | 1490
10 | Cc1nc2c(B(O)O)cc(N3CCOCC3)cc2n1Cc1cccc(Cl)c1 [Example 13, (1-(3-chlorobenzyl)-2-methyl-6-morpholino-1H-benzo[d]imidazol-4-yl)boronic acid] | 246 | 105

Now from value to compound, other results behind:

Row | EC50 [1] [nM] | Compound | IC50 [2] [nM]
11 | 62.8 | Cc1c(Cn2cnc3c(B(O)O)cc(N4CCOCC4)cc32)cccc1C(F)(F)F [Example 14, (1-(2-methyl-3-(trifluoromethyl)benzyl)-6-morpholino-1H-benzo[d]imidazol-4-yl)boronic acid] | 24.4
12 | 60 | Cc1c(Cl)cccc1Cn1cnc2c(B(O)O)cc(N3CCOCC3)cc21 [Example 15, (1-(3-chloro-2-methylbenzyl)-6-morpholino-1H-benzo[d]imidazol-4-yl)boronic acid] | 7.95
13 | 21.5 | Cc1c(Cn2c(CF)nc3c(B(O)O)cc(N4CCOCC4)cc32)cccc1C(F)(F)F [Example 16, (2-(fluoromethyl)-1-(2-methyl-3-(trifluoromethyl)benzyl)-6-morpholino-1H-benzo[d]imidazol-4-yl)boronic acid] | 19.1
14 | 17.8 | Cc1c(Cl)cccc1Cn1c(CF)nc2c(B(O)O)cc(N3CCOCC3)cc21 [Example 17, (1-(3-chloro-2-methylbenzyl)-2-(fluoromethyl)-6-morpholino-1H-benzo[d]imidazol-4-yl)boronic acid] | 14.5
15 | 13.5 | Cc1c(Cn2c(CO)nc3c(B(O)O)cc(N4CCOCC4)cc32)cccc1C(F)(F)F [Example 18, (2-(hydroxymethyl)-1-(2-methyl-3-(trifluoromethyl)benzyl)-6-morpholino-1H-benzo[d]imidazol-4-yl)boronic acid] | 6.35
16 | 31.5 | Cc1c(Cl)cccc1Cn1c(C(F)F)nc2c(B(O)O)cc(N3CCOCC3)cc21 [Example 19, (1-(3-chloro-2-methylbenzyl)-2-(difluoromethyl)-6-morpholino-1H-benzo[d]imidazol-4-yl)boronic acid] | 70.9
17 | 39.8 | Cc1c(Cn2c(C(F)F)nc3c(B(O)O)cc(N4CCOCC4)cc32)cccc1C(F)(F)F [Example 20, (2-(difluoromethyl)-1-(2-methyl-3-(trifluoromethyl)benzyl)-6-morpholino-1H-benzo[d]imidazol-4-yl)boronic acid] | 40.1
18 | 130 | Cc1c(Cl)cccc1Cn1c(C(F)(F)F)nc2c(B(O)O)cc(N3CCOCC3)cc21 [Example 21, (1-(3-chloro-2-methylbenzyl)-6-morpholino-2-(trifluoromethyl)-1H-benzo[d]imidazol-4-yl)boronic acid] | 92.9
19 | 161 | Cc1c(Cn2c(C(C)C)nc3c(B(O)O)cc(N4CCOCC4)cc32)cccc1C(F)(F)F [Example 22, (2-isopropyl-1-(2-methyl-3-(trifluoromethyl)benzyl)-6-morpholino-1H-benzo[d]imidazol-4-yl)boronic acid] | 74.6
20 | 126 | Cc1c(Cn2c(C3CC3)nc3c(B(O)O)cc(N4CCOCC4)cc32)cccc1C(F)(F)F [Example 23, (2-cyclopropyl-1-(2-methyl-3-(trifluoromethyl)benzyl)-6-morpholino-1H-benzo[d]imidazol-4-yl)boronic acid] | 56.2
